# Experimental data taken from US11952375B2, “Crystalline forms of Mnk inhibitors” (eFFECTOR Therapeutics Inc., priority 2018, dated 2024).
# Tests used:
# [1] = Solubility noted during palladium scavenging work; format: physicochemical; conditions: qualitative; precluded use of common solid-supported palladium scavenging agents
# [2] = Kinetic slurry study of the free base in various solvent systems; XRPD and equilibrium solubilities give relative polymorph stability; format: physicochemical; conditions: slurries in various solvent systems, temperatures and water amounts; solids isolated at 2, 4, 6, 24, 72 hours
# Method: For example, the free base of (5) was slurried at ambient temperature in various solvent systems, at various temperatures, with varying amounts of water. In each solvent condition, solids were isolated for XRPD analysis at 2, 4, 6, 24, and 72 hours. Equilibrium solubilities in these solvents were then calculated and used to identify ethanol for the final slurry step. The difference in free energy between solid phases with the same composition (i.e., polymorphs, hydrates, or solvates) is directly proportional to their relative solubilities.
Compound,solubility [1],thermodynamic stability of polymorph [2]
"Cc1cc(Nc2cc(N)ncn2)c(=O)n2c1C(=O)NC21CCCCC1 [Compound 5, 6′-((6-aminopyrimidin-4-yl)amino)-8′-methyl-2′H-spiro[cyclohexane-1,3′-imidazo[1,5-a]pyridine]-1′,5′-dione]",Low,
"Cc1cc(Nc2cc(N)ncn2)c(=O)n2c1C(=O)NC21CCCCC1 [Form A, 6′-((6-aminopyrimidin-4-yl)amino)-8′-methyl-2′H-spiro[cyclohexane-1,3′-imidazo[1,5-a]pyridine]-1′,5′-dione]",,most thermodynamically stable polymorph
